Experimental data from patent US20200289554A1, “BIOORTHOGONAL COMPOUNDS COMPRISING A PROPARGYL GROUP FOR TREATING CANCER” (THE UNIVERSITY COURT OF THE UNIVERSITY OF EDINBURGH, priority 2016, published 2020).

Columns and labels:
BxPC3 cells [1] = experiment: Prodrug safety dose-response cell viability (PrestoBlue), BxPC3; format: cell-based; conditions: Homo sapiens, BXPC-3, 120 h, 5 days, no catalyst
Description: (§1) These cell lines were selected as these are primary malignancies against which the parental drugs are currently prescribed.
(§2) The toxicities of each active agent and prodrugs were compared by performing dose-response studies. […] Cell viability was analysed by fluoresce intensity (λex=540 nm; λem=590 nm) after 60-90 min incubation with PrestoBlue™ Reagent (Life Technologies).

HCT116 cells [2] = experiment: Prodrug safety dose-response cell viability (PrestoBlue), HCT116; format: cell-based; conditions: Homo sapiens, HCT-116, 120 h, 5 days, no catalyst
Description: as §1, §2

BxPC3 cells [3] = experiment: BOOM conversion: prodrug + Pd0-resins in cell culture, cell viability, BxPC3; format: cell-based, human; conditions: Pd0-resin 1 mg/mL, 3 μM prodrug
Description: (§3) Cell viabilities for each prodrug provided as a combination with palladium is presented in FIG. 16 in the right of each set of two bars. Data for prodrug in the absence of palladium catalyst is also provided (the left bar of each set of two bars) for comparison along with negative controls (from left to right: DMSO, Pd^0 and 5FU). Cells were incubated in tissue culture media containing 0.1% (v/v) DMSO and: Pd^0-resins (1 mg/mL, negative control); 3 μM (for BxPC3 cells) or 30 μM (for HCT116 cells) of prodrug (negative control); and Pd^0-resins (1 mg/mL)+3 μM (BxPC3) or 30 μM (HCT116) of each prodrug (BOOM reaction assay). […]
(§4) Following 5 days treatment, cells were incubated with PrestoBlue™ Cell Viability Reagent (Life Technologies) for 90 min. Fluorescence intensity values were related to the untreated cells (100% cell viability). […]
(§5) The toxigenic effect as a result of in situ generation of parental drug in cell culture was determined by incubating all cells in tissue culture media containing 0.1% (v/v) DMSO and a) Pd^0, Au, or Pd/Au-resin (1 mg/mL for all cells tested, negative control); b) prodrug (negative control); or c) Pd^0, Au, or Pd/Au-resin (1 mg/mL for all cells)+prodrug (reaction assay). […]
(§6) A dose response study was performed for each cell line keeping the quantity of Pd^0 resin constant (0.8 mg/mL for U87G and 1 mg/mL for the rest of cell lines). […]

HCT116 cells [4] = experiment: BOOM conversion: prodrug + Pd0-resins in cell culture, cell viability, HCT116; format: cell-based, human; conditions: Pd0-resin 1 mg/mL, 30 μM prodrug
Description: as §3, §4, §5, §6

T98 cells = experiment: Prodrug safety dose-response cell viability (PrestoBlue), T98; format: cell-based; conditions: Homo sapiens, 120 h, 5 days, no catalyst
Description: as §1, §2

DU145 cells = experiment: Prodrug safety dose-response cell viability (PrestoBlue), DU145; format: cell-based; conditions: Homo sapiens, DU-145, 120 h, 5 days, no catalyst
Description: as §1, §2

A549 cells = experiment: Prodrug safety dose-response cell viability (PrestoBlue), A549; format: cell-based; conditions: Homo sapiens, 120 h, 5 days, no catalyst
Description: as §1, §2

A2780 cells = experiment: Prodrug safety dose-response cell viability (PrestoBlue), A2780; format: cell-based; conditions: Homo sapiens, 120 h, 5 days, no catalyst
Description: as §1, §2

U87G cells [5] = experiment: Prodrug safety dose-response cell viability (PrestoBlue), U87G; format: cell-based, human; conditions: Homo sapiens, 120 h, read-out: EC50 (cell viability)
Description: as §1, §2

U87G cells [6] = experiment: BOOM conversion: prodrug + Pd0-resins in cell culture, cell viability, U87G; format: cell-based, human; conditions: Pd0-resin, SN-38 prodrug
Description: Following 5 days treatment, cells were incubated with PrestoBlue™ Cell Viability Reagent (Life Technologies) for 60-90 min. Fluorescence intensity values were related to the untreated cells (100% cell viability). […] Cells incubated in 0.1% (v/v) DMSO in media were used as untreated cell control.
The toxigenic effect as a result of in situ generation of parental drug in cell culture was determined by incubating all cells in tissue culture media containing 0.1% (v/v) DMSO and a) Pd^0, Au, or Pd/Au-resin (1 mg/mL for all cells tested, negative control); b) prodrug (negative control); or c) Pd^0, Au, or Pd/Au-resin (1 mg/mL for all cells)+prodrug (reaction assay). Cells incubated in 0.1% (v/v) DMSO in media was used as an untreated cell reference standard (100% viability). A PrestoBlue® cell viability assay as described above was carried out and fluorescent intensities compared to the untreated cell control.
(§7) A dose response study was performed for each cell line keeping the quantity of Pd^0 resin constant (0.8 mg/mL for U87G and 1 mg/mL for the rest of cell lines). […] Fluorescence intensity values (detected using a PerkinElmer EnVision 2101 multilabel reader with excitation filter at 540 nm and emissions filter at 590 nm) were determined relative to the untreated cell control.

MiaPaCa2 cells [7] = experiment: Prodrug safety dose-response cell viability (PrestoBlue), MiaPaCa2; format: cell-based, human; conditions: relative to Gemcitabine
Description: as §1, §2

MiaPaCa2 cells [8] = experiment: BOOM conversion: prodrug + Pd0-resins in cell culture, cell viability, MiaPaCa2; format: cell-based, human
Description: Cell viabilities for each prodrug provided as a combination with palladium is presented in FIG. 10 in the right of each set of two bars. Data for prodrug in the absence of palladium catalyst is also provided (the left bar of each set of two bars) for comparison along with negative controls (from left to right: DMSO, Pd^0 and Gemcitabine). Cells were incubated in tissue culture media containing 0.1% (v/v) DMSO and: Pd^0-resins (1 mg/mL, negative control); 0.03 μM of each prodrug (negative control); and Pd^0-resins (1 mg/mL)+0.03 μM of each prodrug (BOOM reaction assay). Cells incubated in 0.1% (v/v) DMSO in media were used as untreated cell control.
Following 5 days treatment, cells were incubated with PrestoBlue™ Cell Viability Reagent (Life Technologies) for 90 min. Fluorescence intensity values were related to the untreated cells (100% cell viability). Data are provided in FIG. 11 for cells incubated in tissue culture media containing 0.1% (v/v) DMSO and: Pd^0-resins (1 mg/mL, negative control); 0.003-0.3 μM of pPOBC-Gem (negative control); 0.003-0.3 μM of Gemcitabine (positive control); and Pd^0-resin (1 mg/mL)+pPOBC-Gem (BOOM reaction assay). Cells incubated in 0.1% (v/v) DMSO in media were used as untreated cell control.
as §5, with “assay). Cells incubated in 0.1% (v/v) DMSO in media was used as an untreated cell reference standard (100% viability).” for “assay).”
as §7

For O=c1[nH]cc(F)c(=O)[nH]1 [5FU, 5-fluorouracil, reference compound], the EC50 (BxPC3 cells [1]) was 0.14 µM and the EC50 (HCT116 cells [2]) was 1.5 µM.
C#CCOc1ncc(F)c(OCC#C)n1 [Bis-Pro-5FU, 2,4-bispropargyl-5-fluorouracil] was tested, and the EC50 (BxPC3 cells [1]) was > 100 µM, the “toxigenic effect of prodrug + Pd0 resins” value (BxPC3 cells [3]) was “strong toxigenic effect” and the “toxigenic effect of prodrug + Pd0 resins” value (HCT116 cells [4]) was “strong toxigenic effect”. The EC50 (HCT116 cells [2]) was > 100 µM.
COc1cccc2c1C(=O)c1c(O)c3c(c(O)c1C2=O)C[C@@](O)(C(=O)CO)C[C@@H]3O[C@H]1C[C@H](N)[C@H](O)[C@H](C)O1 [Doxorubicin, reference compound] gave an EC50 (T98 cells) of 0.32 µM, an EC50 (DU145 cells) of 0.023 µM and an EC50 (A549 cells) of 0.105 µM.
O=C(c1cc(Cc2n[nH]c(=O)c3ccccc23)ccc1F)N1CCN(C(=O)C2CC2)CC1 [Olaparib, reference compound] showed an EC50 (A2780 cells) of 1.87 µM.
With C#CCOc1nnc(Cc2ccc(F)c(C(=O)N3CCN(C(=O)C4CC4)CC3)c2)c2ccccc12 [Prop-Olap, 4-[(3-[(4-cyclopropylcarbonyl)piperazin-4-yl]carbonyl)-4-fluorophenyl]methyl-phthalazin-1-oxypropargyl] the EC50 (A2780 cells) was > 100 µM.
With C#CCOc1cccc(OCC#C)c1COc1ccc2nc3c(c(CC)c2c1)Cn1c-3cc2c(c1=O)COC(=O)[C@]2(O)CC [di-oPOB-SN-38, (S)-9-((2,6-bis(prop-2-yn-1-yloxy)benzyl)oxy)-4,11-diethyl-4-hydroxy-1,12-dihydro-14H-pyrano[3′,4′:6,7]indolizino[1,2-b]quinoline-3,14(4H)-dione] the EC50 (U87G cells [5]) was 3.15 µM and the “toxigenic effect of prodrug + Pd0 resins” value (U87G cells [6]) was “strong toxigenic effect”.
With C#CCOc1ccc(COC(=O)Nc2ccn(C3OC(CO)C(O)C3(F)F)c(=O)n2)cc1 (stereo not shown) [pPOBC-Gem, 4-proparglyoxybenzylcarbamoyl Gemcitabine] the “reduction in the cytotoxic effect relative the parent active agent” value (MiaPaCa2 cells [7]) was 27 fold, the EC50 (MiaPaCa2 cells [8]; Homo sapiens, MIA PaCa-2, 120 h, prodrug in combination with Pd0-resins 1 mg/mL, 5 days, read-out: EC50, prodrug + Pd-resins) was 0.226 µM and the “toxigenic effect of prodrug + Pd0 resins” value (MiaPaCa2 cells [8]; Pd0-resin 1 mg/mL, 0.03 μM Gemcitabine prodrugs) was “strong toxigenic effect”.
